Laboratory results: patent publication US20240122933A1, “USE OF ISOQUINOLINE-1,5-DIAMINES FOR WOUND HEALING” (Lutris Pharma Ltd., priority 2021, published 2024)

B1: Becaplermin (protein, UniProt P01127 82-190, looked up)
Platelet-derived growth …: SLGSLTIAEPAMIAECKTRTEVFEISRRLIDRTNANFLVWPPCVEVQRCSGCCNNRNVQCRPTQVQLRPVQVRKIEIVRKKPIFKKATVTLEDHLACKCETVAAARPVT
notes: recombinant human platelet-derived growth factor, FDA-approved for promoting healing of diabetic foot ulcers

Tests used:
[1] = system: Mitogen-Activated Protein Kinase (MAPK or ERK); experiment: MAPK (ERK phosphorylation) activity screen of BRaf inhibitors of Formula (I) vs. reference C-1; type: cell-based; conditions: MAPK activity of compound relative to reference compound C-1
Description: The BRaf inhibitors of this disclosure were screened for phosphorylation of ERK (MAPK).
(§1) The chemical structures, synthetic schemes and the synthetic procedures for each of the compounds of Formula (I) of this disclosure, as well as their MAPK (ERK) and the phototoxicity studies of LUT-014 were detailed in Shelach N., U.S. Patent Application Publication No. U.S.2019389862, which is incorporated herein in its entirety.

[2] = Phototoxicity: Photo-Irritation Factor (PIF) or Mean Photo Effect (MPE); type: cell-based
Description: The level of phototoxicity was determined by measuring a Photo-Irritation Factor (PIF) or a Mean Photo Effect (MPE) of one of the compounds of Formula (I), namely LUT-014 (R=3-(trifluoromethoxy)phenyl).
as §1

[3] = system: wound; conditions: given alone; cited from earlier work

Molecule	LUT/C1 MAPK Ratios [1]	other results
C#Cc1cccc(Nc2nccc3c(Nc4ncccc4-c4ncnc5nc[nH]c45)c(C)ccc23)c1 [LUT-012]	0.7	–
Cc1ccc2c(Nc3cccc(OC(F)(F)F)c3)nccc2c1Nc1ncccc1-c1ncnc2[nH]cnc12 [LUT-014]	2.9	Photo-Irritation Factor (PIF) [2]: less than 2; phototoxicity [2]: low phototoxicity
Cc1ccc2c(Nc3ccc(Cl)c(C(F)(F)F)c3)nccc2c1Nc1ncccc1-c1ncnc2nc[nH]c12 [LUT-017]	3.5	–
Cc1ccc2c(Nc3cc(C(C)(C)C)nn3C)nccc2c1Nc1ncccc1-c1ncnc2nc[nH]c12 [LUT-013]	3.4	–
Cc1ccc2c(Nc3ccc(I)cc3F)nccc2c1Nc1ncccc1-c1ncnc2nc[nH]c12 [LUT-016]	2.0	–
Cc1ccc2c(Nc3cccc(S(N)(=O)=O)c3)nccc2c1Nc1ncccc1-c1ncnc2[nH]cnc12 [LUT-020]	1.0	–
Cc1ccc2c(Nc3ccc(F)c(Cl)c3)nccc2c1Nc1ncccc1-c1ncnc2[nH]cnc12 [LUT-015]	2.1	–
B1	–	effect in promoting wound healing [3]: only a modest beneficial effect
